Laboratory results as given in ChEMBL document CHEMBL3352578 (J Med Chem, 2014).
The source made the active and inactive calls. No cut-off for these calls is given here.

Legend:
Rattus norvegicus [1] = assay: Positive allosteric modulation of mGlu2 receptor in Sprague-Dawley rat sleep-wake EEG paradigm model assessed as reduction in REM sleep at 3 mg/kg, po after 4 hrs by electroencephalogram analysis; format: functional, organism-based; set-up: dose 3 mg/kg
Rattus norvegicus [2] = assay: Positive allosteric modulation of mGlu2 receptor in Sprague-Dawley rat sleep-wake EEG paradigm model assessed as effect on passive wake stage at 3 mg/kg, po after 4 hrs by electroencephalogram analysis; format: functional, organism-based; set-up: dose 3 mg/kg
[3] = Tmax in dog at 1 mg/kg, iv; format: ADME, organism-based, Canis lupus familiaris; set-up: dose 1 mg/kg, route intravenous; details: in vivo
[4] = Tmax in Sprague-Dawley rat at 2.5 mg/kg, iv; format: ADME, organism-based; set-up: dose 2.5 mg/kg, route intravenous; details: in vivo
[5] = target: Metabotropic glutamate receptor 1 (Homo sapiens) (UniProt Q13255); assay: Binding affinity to human mGlu1 receptor expressed in HEK293 cells assessed as calcium mobilization by [35S]GTPgamma binding assay; format: functional, cell-based
[6] = Metabolic stability in human liver microsomes assessed as compound metabolized at 5 uM after 15 mins by MS/MS analysis in presence of NADPH; format: ADME; details: read-out: Drug metabolism
[7] = Apparent permeability from basolateral to apical side in human Caco2 cells; format: ADME, cell-based; details: Caco-2
[8] = AUC (0 to infinity) in dog at 2.5 mg/kg, po; format: ADME, organism-based, Canis lupus familiaris; set-up: time infinity, dose 2.5 mg/kg, route oral; details: plasma
Rattus norvegicus [9] = assay: Positive allosteric modulation of mGlu2 receptor in Sprague-Dawley rat sleep-wake EEG paradigm model assessed as effect on light sleep stage at 3 mg/kg, po after 4 hrs by electroencephalogram analysis; format: functional, organism-based; set-up: dose 3 mg/kg
[10] = AUC (0 to infinity) in Sprague-Dawley rat at 10 mg/kg, po; format: ADME, organism-based; set-up: time infinity, dose 10 mg/kg, route oral; details: plasma
[11] = Cmax in Sprague-Dawley rat at 10 mg/kg, po; format: ADME, organism-based; set-up: dose 10 mg/kg, route oral; details: in vivo
[12] = Volume of distribution at steady state in Sprague-Dawley rat at 2.5 mg/kg, iv; format: ADME, organism-based; set-up: dose 2.5 mg/kg, route intravenous; details: in vivo, read-out: Vdss
[13] = target: Metabotropic glutamate receptor 6 (Rattus norvegicus) (UniProt P35349); assay: Binding affinity to rat mGlu6 receptor expressed in CHO cells assessed as calcium mobilization by [35S]GTPgamma binding assay; format: functional, cell-based
[14] = Clearance in Sprague-Dawley rat at 2.5 mg/kg, iv; format: ADME, organism-based; set-up: dose 2.5 mg/kg, route intravenous; details: in vivo
[15] = Dissociation constant, pKa of the compound; format: physicochemical
[16] = Cmax in dog at 2.5 mg/kg, po; format: ADME, organism-based, Canis lupus familiaris; set-up: dose 2.5 mg/kg, route oral; details: in vivo
Rattus norvegicus [17] = assay: Positive allosteric modulation of mGlu2 receptor in Sprague-Dawley rat sleep-wake EEG paradigm model assessed as effect on intermediate state at 3 mg/kg, po after 4 hrs by electroencephalogram analysis; format: functional, organism-based; set-up: dose 3 mg/kg
Rattus norvegicus [18] = assay: Positive allosteric modulation of mGlu2 receptor in po dosed Sprague-Dawley rat assessed effect on sleep-wake EEG paradigm after 20 hrs by electroencephalogram analysis; format: functional
Rattus norvegicus [19] = assay: Positive allosteric modulation of mGlu2 receptor in po dosed Sprague-Dawley rat assessed free plasma drug level causing effect on sleep-wake EEG paradigm after 20 hrs by electroencephalogram analysis; format: functional
[20] = Clearance in dog at 1 mg/kg, iv; format: ADME, organism-based, Canis lupus familiaris; set-up: dose 1 mg/kg, route intravenous; details: in vivo
[21] = target: Metabotropic glutamate receptor 5 (Homo sapiens) (UniProt P41594); assay: Binding affinity to human mGlu5 receptor expressed in HEK293 cells assessed as calcium mobilization by [35S]GTPgamma binding assay; format: functional, cell-based
[22] = Metabolic stability in rat liver microsomes assessed as compound metabolized at 5 uM after 15 mins by MS/MS analysis in presence of NADPH; format: ADME; details: read-out: Drug metabolism
[23] = Oral bioavailability in dog at 2.5 mg/kg; format: ADME, organism-based, Canis lupus familiaris; details: in vivo
Rattus norvegicus [24] = assay: Positive allosteric modulation of mGlu2 receptor in Sprague-Dawley rat sleep-wake EEG paradigm model assessed as effect on deep sleep stage at 3 mg/kg, po after 4 hrs by electroencephalogram analysis; format: functional, organism-based; set-up: dose 3 mg/kg
[25] = target: Metabotropic glutamate receptor 3 (Homo sapiens) (UniProt Q14832); assay: Binding affinity to human mGlu3 receptor expressed in HEK293 cells assessed as calcium mobilization by [35S]GTPgamma binding assay; format: functional, cell-based
[26] = Elimination half life in Sprague-Dawley rat at 2.5 mg/kg, iv; format: ADME, organism-based; set-up: dose 2.5 mg/kg, route intravenous; details: in vivo, read-out: beta t1/2 (converted)
[27] = Volume of distribution at steady state in dog at 1 mg/kg, iv; format: ADME, organism-based, Canis lupus familiaris; set-up: dose 1 mg/kg, route intravenous; details: in vivo, read-out: Vdss
[28] = Apparent permeability from apical to basolateral side in human Caco2 cells; format: ADME, cell-based; details: Caco-2
[29] = target: Metabotropic glutamate receptor 4 (Homo sapiens) (UniProt Q14833); assay: Binding affinity to human mGlu4 receptor expressed in […] L929 cells assessed as calcium mobilization by [35S]GTPgamma binding assay; format: functional, cell-based
[30] = Ratio of drug level in brain to plasma in Swiss mouse at 10 mg/kg, sc after 1 hr; format: ADME, organism-based; set-up: dose 10 mg/kg, route subcutaneous; details: brain and plasma, read-out: BPR
[31] = Oral bioavailability in Sprague-Dawley rat at 10 mg/kg; format: ADME, organism-based; details: in vivo
[32] = Lipophilicity, log P of the compound at pH 6.8; format: physicochemical; details: buffer
Rattus norvegicus [33] = assay: Positive allosteric modulation of mGlu2 receptor in Sprague-Dawley rat sleep-wake EEG paradigm model assessed as effect on active wake stage at 3 mg/kg, po after 4 hrs by electroencephalogram analysis; format: functional, organism-based; set-up: dose 3 mg/kg
[34] = Elimination half life in dog at 1 mg/kg, iv; format: ADME, organism-based, Canis lupus familiaris; set-up: dose 1 mg/kg, route intravenous; details: in vivo, read-out: beta t1/2 (converted)

Sequence of Metabotropic glutamate receptor 3 (Homo sapiens) (Q14832 23-879 limits assumed): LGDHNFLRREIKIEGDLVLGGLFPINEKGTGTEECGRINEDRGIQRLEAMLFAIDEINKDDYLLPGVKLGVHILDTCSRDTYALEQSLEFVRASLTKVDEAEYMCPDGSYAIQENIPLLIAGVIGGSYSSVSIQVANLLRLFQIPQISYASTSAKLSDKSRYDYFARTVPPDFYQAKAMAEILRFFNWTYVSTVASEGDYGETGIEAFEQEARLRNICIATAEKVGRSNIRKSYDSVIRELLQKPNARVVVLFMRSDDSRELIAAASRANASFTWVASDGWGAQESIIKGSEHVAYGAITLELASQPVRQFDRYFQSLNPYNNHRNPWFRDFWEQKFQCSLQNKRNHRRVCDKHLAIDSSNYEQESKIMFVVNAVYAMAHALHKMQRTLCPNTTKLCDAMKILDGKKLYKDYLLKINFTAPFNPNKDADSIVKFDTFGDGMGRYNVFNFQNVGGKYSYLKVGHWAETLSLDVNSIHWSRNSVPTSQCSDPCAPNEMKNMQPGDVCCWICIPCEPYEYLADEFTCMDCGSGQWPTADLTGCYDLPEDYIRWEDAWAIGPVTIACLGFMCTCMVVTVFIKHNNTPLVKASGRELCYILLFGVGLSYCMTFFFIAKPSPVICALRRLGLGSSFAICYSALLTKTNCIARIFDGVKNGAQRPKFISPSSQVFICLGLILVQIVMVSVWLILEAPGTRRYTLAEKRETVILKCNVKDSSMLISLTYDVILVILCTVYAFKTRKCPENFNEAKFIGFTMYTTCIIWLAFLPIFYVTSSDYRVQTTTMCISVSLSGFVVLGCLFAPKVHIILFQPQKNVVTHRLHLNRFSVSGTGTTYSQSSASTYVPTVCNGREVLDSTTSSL
Sequence of Metabotropic glutamate receptor 4 (Homo sapiens) (Q14833 whole entry): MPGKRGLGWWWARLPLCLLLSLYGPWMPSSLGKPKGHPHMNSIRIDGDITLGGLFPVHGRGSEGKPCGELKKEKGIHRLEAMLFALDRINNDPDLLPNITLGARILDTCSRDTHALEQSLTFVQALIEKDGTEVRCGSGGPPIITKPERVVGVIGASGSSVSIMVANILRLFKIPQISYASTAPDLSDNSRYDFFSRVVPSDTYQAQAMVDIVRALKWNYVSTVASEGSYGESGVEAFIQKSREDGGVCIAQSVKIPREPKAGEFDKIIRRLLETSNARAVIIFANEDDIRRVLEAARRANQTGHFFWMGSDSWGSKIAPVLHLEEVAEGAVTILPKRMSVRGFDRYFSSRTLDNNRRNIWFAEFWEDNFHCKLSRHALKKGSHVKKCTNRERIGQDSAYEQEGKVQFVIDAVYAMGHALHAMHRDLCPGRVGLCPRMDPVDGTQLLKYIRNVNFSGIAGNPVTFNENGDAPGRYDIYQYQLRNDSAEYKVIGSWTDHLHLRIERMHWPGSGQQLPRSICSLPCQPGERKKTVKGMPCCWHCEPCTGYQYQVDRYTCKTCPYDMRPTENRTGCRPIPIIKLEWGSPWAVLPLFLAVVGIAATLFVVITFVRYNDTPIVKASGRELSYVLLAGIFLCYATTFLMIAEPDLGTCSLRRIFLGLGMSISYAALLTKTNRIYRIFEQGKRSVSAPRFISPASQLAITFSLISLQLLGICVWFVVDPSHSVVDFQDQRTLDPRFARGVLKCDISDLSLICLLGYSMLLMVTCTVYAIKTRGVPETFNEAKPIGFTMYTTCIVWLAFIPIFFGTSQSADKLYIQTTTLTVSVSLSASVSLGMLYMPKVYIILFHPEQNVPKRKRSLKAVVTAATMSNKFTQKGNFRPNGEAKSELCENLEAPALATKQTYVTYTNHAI
Sequence of Metabotropic glutamate receptor 1 (Homo sapiens) (Q13255 19-1194 limits assumed): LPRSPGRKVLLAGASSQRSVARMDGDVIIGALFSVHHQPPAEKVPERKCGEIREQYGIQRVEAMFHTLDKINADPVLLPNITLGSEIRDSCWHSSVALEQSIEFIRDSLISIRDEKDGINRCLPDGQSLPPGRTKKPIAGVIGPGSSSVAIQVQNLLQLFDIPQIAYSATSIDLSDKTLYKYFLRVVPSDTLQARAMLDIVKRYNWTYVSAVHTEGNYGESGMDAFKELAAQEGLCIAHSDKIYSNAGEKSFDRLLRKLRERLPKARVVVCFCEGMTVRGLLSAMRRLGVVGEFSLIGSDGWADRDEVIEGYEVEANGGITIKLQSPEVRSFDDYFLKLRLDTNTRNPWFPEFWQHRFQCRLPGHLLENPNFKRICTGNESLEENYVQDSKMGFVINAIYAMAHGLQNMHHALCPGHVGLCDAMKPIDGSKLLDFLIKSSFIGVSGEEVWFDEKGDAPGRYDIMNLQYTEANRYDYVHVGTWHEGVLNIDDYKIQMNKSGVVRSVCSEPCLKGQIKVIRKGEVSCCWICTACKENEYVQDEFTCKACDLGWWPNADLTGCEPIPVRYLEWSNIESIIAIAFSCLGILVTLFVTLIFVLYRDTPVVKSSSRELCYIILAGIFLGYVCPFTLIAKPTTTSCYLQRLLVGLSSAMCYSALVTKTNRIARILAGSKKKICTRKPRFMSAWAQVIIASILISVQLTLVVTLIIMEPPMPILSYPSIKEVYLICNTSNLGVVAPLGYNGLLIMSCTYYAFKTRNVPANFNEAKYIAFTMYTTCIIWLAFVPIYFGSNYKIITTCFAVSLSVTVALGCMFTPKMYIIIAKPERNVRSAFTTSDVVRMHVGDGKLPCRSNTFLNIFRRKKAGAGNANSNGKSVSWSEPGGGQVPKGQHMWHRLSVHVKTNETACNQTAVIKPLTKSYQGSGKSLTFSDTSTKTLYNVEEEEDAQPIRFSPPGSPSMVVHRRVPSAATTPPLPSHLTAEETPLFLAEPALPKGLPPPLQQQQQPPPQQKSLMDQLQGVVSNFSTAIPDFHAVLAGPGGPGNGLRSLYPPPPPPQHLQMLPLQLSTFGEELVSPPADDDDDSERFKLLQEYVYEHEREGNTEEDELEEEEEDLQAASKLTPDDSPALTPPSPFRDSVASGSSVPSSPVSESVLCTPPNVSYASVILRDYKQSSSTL
Sequence of Metabotropic glutamate receptor 5 (Homo sapiens) (P41594 21-1212 limits assumed): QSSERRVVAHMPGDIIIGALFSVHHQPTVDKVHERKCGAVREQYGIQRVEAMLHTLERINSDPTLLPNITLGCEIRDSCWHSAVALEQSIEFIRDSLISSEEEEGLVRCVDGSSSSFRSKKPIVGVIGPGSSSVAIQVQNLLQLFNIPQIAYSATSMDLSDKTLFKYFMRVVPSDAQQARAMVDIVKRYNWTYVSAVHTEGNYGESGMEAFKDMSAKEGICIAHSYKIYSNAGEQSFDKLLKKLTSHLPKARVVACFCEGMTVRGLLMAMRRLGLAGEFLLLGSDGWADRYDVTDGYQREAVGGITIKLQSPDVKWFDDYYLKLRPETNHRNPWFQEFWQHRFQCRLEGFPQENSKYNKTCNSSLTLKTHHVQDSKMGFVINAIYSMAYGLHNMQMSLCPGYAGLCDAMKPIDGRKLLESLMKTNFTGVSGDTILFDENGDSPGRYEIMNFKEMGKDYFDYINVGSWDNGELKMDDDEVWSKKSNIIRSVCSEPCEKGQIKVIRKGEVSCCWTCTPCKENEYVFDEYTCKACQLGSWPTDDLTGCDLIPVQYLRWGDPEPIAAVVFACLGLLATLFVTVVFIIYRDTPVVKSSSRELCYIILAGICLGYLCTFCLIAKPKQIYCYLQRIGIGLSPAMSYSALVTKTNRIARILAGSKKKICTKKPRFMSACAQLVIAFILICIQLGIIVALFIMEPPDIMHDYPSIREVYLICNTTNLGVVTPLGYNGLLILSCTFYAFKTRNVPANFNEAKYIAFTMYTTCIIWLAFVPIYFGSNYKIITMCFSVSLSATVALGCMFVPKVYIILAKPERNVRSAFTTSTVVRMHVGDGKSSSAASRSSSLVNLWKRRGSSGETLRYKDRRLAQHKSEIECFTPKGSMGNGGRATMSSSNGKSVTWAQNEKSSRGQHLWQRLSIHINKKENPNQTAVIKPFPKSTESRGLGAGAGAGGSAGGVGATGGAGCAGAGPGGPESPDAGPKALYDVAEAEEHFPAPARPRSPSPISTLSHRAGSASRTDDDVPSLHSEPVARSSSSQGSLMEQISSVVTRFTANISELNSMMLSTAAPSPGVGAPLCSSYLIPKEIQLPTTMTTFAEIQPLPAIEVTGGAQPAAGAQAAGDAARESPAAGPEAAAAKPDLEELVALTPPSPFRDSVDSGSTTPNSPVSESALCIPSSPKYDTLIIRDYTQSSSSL
Sequence of Metabotropic glutamate receptor 6 (Rattus norvegicus) (P35349 whole entry): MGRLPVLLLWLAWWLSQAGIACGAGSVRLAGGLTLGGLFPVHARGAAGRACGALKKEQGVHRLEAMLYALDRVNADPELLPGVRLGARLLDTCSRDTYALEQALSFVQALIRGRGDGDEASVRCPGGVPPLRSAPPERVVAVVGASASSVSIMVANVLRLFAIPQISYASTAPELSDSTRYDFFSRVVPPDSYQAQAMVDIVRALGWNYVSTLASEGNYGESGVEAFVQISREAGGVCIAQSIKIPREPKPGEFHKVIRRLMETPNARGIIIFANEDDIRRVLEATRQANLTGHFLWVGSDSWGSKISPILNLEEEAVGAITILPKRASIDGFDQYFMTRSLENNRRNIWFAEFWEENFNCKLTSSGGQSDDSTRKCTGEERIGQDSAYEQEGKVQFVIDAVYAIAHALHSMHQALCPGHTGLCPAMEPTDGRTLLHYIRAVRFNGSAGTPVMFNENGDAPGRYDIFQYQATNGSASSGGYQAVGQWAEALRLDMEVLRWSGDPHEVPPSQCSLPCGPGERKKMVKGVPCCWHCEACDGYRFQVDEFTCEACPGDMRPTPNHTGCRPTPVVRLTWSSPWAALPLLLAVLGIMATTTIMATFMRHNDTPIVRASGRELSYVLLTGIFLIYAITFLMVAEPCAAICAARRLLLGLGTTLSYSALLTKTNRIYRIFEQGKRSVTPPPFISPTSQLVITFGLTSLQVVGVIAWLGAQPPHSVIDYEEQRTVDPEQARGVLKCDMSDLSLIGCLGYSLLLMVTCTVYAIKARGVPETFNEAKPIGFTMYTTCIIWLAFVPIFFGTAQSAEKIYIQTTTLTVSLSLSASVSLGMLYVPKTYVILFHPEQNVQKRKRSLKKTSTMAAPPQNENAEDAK

Tmax [3]: 0.5 h
Tmax [4]: 0.5 h
Activity [5]: inactive
metabolised at 0.25 h, 5 µM [6]: 23%
Papp B→A [7]: 6 ×10⁻⁶ cm/s
AUC(0-inf) [8]: 743 ng·h/mL
AUC(0-inf) [10]: 2250 ng·h/mL
Cmax [11]: 938 ng/mL
Vd [12]: 2.3 L/kg
Activity [13]: inactive
clearance [14]: 23 mL/min/kg
pKa [15]: < 2
Cmax [16]: 373 ng/mL
clearance [20]: 23 mL/min/kg
Activity [21]: inactive
metabolised at 0.25 h, 5 µM [22]: 53%
bioavailability [23]: 20%
Activity [25]: inactive
half-life [26]: 2.3 h
Vd [27]: 1.8 L/kg
Papp A→B [28]: 12 ×10⁻⁶ cm/s
Activity [29]: inactive
Kp at 1 h [30]: 1
bioavailability [31]: 31%
logD [32]: 4.6
half-life [34]: 3.7 h
Compound: CCCCn1ccc(N2CCC(c3ccccc3)CC2)c(Cl)c1=O [JNJ-40411813]
Activity (Rattus norvegicus [1]): Active
Activity (Rattus norvegicus [2]): inactive
Activity (Rattus norvegicus [9]): inactive
Activity (Rattus norvegicus [17]): inactive
MEC (Rattus norvegicus [18]): 281 ng/mL
minimal effective dose (Rattus norvegicus [18]; Rattus norvegicus, Sprague-Dawley, po, 20 h, read-out: MED): 3 mg/kg
fMEC (Rattus norvegicus [19]): 0.9 ng/mL
Activity (Rattus norvegicus [24]): inactive
Activity (Rattus norvegicus [33]): inactive
